Values of other authors as cited in patent publication US7872019B2, “Polymorphs and amorphous form of (S)-(+)-clopidogrel bisulfate” (Cadila Healthcare Limited, priority 2003, dated 2011).

Key:
platelet aggregation = conditions: comparison of the two enantiomers, in words
[1] = comparison of the two enantiomers, in words

Row | SMILES | antiagregant platelet activity (platelet aggregation) | tolerance [1]
1 | COC(=O)[C@@H](c1ccccc1Cl)N1CCc2sccc2C1 (single isomer, unassigned) [levorotatory enantiomer of (I)] | less active | less tolerated
2 | COC(=O)[C@H](c1ccccc1Cl)N1CCc2sccc2C1 [dextrorotatory enantiomer of formula (I) of Clopidogrel] | excellent antiagregant platelet activity | –
